From patent US12161114B2, “Overpowered ABA receptor agonists” (The Regents of the University of California, priority 2018, dated 2024) come the findings set out here.

Structures are written as SMILES.

Assay [1] relates to panel of recombinant ABA receptors; PP2C HAB1. Briefly: receptor-mediated PP2C inhibition assay, dose response, umbelliferone substrate. It is filed as biochemical, Arabidopsis. Conditions: 4 nM to 50 μM dose response. As to the method: Each ligand was tested at concentrations spanning 7 points between 4 nM and 50 μM in triplicate in a reaction buffer containing 100 mM Tris-HCl-pH7.9, 100 mM NaCl, 30 μg/ml BSA, 0.1% 2-mercaptoethanol, 25 nM ΔN-HAB1, 1 mM 4-methylumbelliferyl phosphate, and different recombinant ABA receptors at 50 nM or 300 nM (for PYL9 or PYL11). The substrate was added ˜20 minutes after the other components had been mixed and fluorescence data collected. Control carrier solvent-only wells were included as a reference and %-activity for tested compounds calculated relative to this control. The dose response data (PP2C activity versus agonist concentration) was fit to a log (inhibitor) vs. response-(variable slope) model using non-linear regression to infer the IC50S, using GraphPad Prism 6.0, to yield the IC50 values shown in FIG. 6.
The potency and selectivity of ligands 2b, 2e-f was established by testing their ability to activate multiple ABA receptor subtypes using the fluorescence based phosphasted assay as outlined in example 2 at a range of concentrations (4 nM to 50 μM). In addition, we compared ligand potency to ABA, quinabactin and a recently described fluorinated quinabactin analog AMF4, which is reported to have improved potency in comparison toe quinabactin. To conduct the assays purified recombinant receptors were tested at 50 nM or, in the a cases of PYL9 and PYL11, 300 nM and 25 nM ΔN-HAB1. The PP2C-activity dose response data obtained was fit to a log (inhibitor) vs response-(variable slope) model using non-linear regression to infer the IC50S, using GraphPad Prism 6.0, to yield IC50 values as shown in FIG. 12A. […] Moreover, the installation of a single cyclopropyl group ortho to the nitrile (analog 2e) provided a further boost in potency, dramatically so for all subfamily III receptors, PYL4 and PYL11. […] Furthermore, the installation of a second cyclopropyl substituent (analog 2f) provides an even further boot in activity on subfamily III receptors, which comes at the expense of reduced potency on subfamily I receptors. […] 2f is therefore an unusually overpowered ABA receptor agonist, which we refer to as opabactin (Opa).

In assay [2] the test system is pyr1/pyl1, pyl8/pyl9 and abi1C mutants. Briefly: seed germination on receptor mutants and ABA signalling mutant abi1C. It is filed as in vivo, Arabidopsis. Particulars: tested at twice the EC50. The method, then:
(§1) Prior to selecting a scaffold for optimization we conducted Arabidopsis seed germination assays to establish if the hits obtained are activity in vivo. Germination experiments were performed with surface sterilized wild type Columbia Arabidopsis thaliana seeds and abi1C (the abi1-1 allele isolated in the Columbia ecotype) plated onto 0.7% agar medium containing 1/2-x MS salts, 0.5% sucrose and differing concentrations of the test compounds. After 4d of stratification at 4° C., the plates were transferred to a growth chamber under continuous illumination and evaluated after 4 days.
Methods similar to example 3 were followed.

Assay [3] concerns wild type Columbia Arabidopsis thaliana seeds. Briefly: Arabidopsis seed germination assay. It is filed as in vivo. Conditions: Arabidopsis thaliana. The method, then:
as §1
To establish if the in vitro potency of Opa translates into improved activity in vivo, we measured the effects of ABA, QB, AMF4, Opa and 2e on Arabidopsis seed germination at a range of concentrations to infer quantitative measures or potency. Methods similar to that described in Example 3 are followed. The percentage of germinated seeds were recorded for each chemical treatment for each concentration in quadruplicate. EC50 values denote the concentrations at which 50% of seeds have been inhibited.

In the next assay the target is T1, PYL2 (Arabidopsis thaliana, UniProt O80992).
T1 construct: 6xHis; made in house
T1 sequence (O80992 1-190): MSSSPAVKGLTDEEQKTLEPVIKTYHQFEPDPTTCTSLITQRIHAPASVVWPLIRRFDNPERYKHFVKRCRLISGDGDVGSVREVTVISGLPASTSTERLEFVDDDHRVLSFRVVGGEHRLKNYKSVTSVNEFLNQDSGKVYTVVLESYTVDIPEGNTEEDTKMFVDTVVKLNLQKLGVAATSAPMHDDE
T1 sequence (Q9CAJ0 180-511 partner): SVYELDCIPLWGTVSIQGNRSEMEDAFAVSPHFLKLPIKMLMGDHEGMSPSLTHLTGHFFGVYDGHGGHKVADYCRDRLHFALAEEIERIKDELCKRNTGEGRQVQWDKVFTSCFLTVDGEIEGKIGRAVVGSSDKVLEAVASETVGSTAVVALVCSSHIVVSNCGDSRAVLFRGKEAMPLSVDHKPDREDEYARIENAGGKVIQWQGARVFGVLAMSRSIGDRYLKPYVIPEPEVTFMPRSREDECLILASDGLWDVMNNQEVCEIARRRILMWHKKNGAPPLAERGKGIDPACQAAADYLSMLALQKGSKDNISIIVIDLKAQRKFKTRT
Briefly: receptor-mediated PP2C inhibition assay, pnPP substrate, PYL2. In kind it is biochemical. As to the method: The potency and selectivity of ligand 10H4, a relatively potent member of scaffold 2, was characterized in separate experiments using an absorbance-based assay using the colorimetric substrate p-nitrophenyl phosphate (pNPP), as follows. Purified proteins (100 nM receptor, 50 nM HAB1) were pre-incubated in 160 μl assay buffer containing (100 mM Tris-HCl-pH7.9, 100 mM NaCl, 0.3 μg/mL BSA, 0.1% 2-mercaptoethanol, and 1 mM MnCl2) with ligands for 30 minutes at room temperature. Reactions were started by adding 40 μL of 25 mM p-NPP in assay buffer after which absorbance measurements were immediately collected at 405 nm on Tecan plate reader. The concentrations tested spanned 4 nM to 10 μM and the dose response data obtained was fit to a log (inhibitor) vs response-(variable slope) model using non-linear regression to infer the IC50S, using GraphPad Prism, to yield the IC50 values shown in FIG. 7.
8, no. 1, October 2017, p. 1183. • Daszkowska-Golec, Agata. […]

For assay [4], the system named is pooled ABA receptors (PYL1, PYL2, PYL4, PYL8, and maize receptor ZmPYLe) with PP2C HAB1. Briefly: pooled receptor activation assay (receptor/ligand-mediated inhibition of PP2C HAB1, 4-methylumbelliferyl phosphate). Particulars: tested in duplicate at 20 μM. It is filed as biochemical, Arabidopsis; maize. The source says:
The angiosperm ABA receptor family is large and contains many receptors that cluster into 3 subfamilies. Multiple analyses have shown that agonists of subfamily III receptors are particularly efficacious as antitranspirants, however pan agonists or other new selective agonists may be valuable for crop enhancement. In principle, a docking hit molecule might interact with any or all ABA receptors, creating a large matrix of possible interactions and screening conditions. To expedite the process of screening for new ABA agonists, we developed a pooled receptor screening assay. To do this we selected phylogenetically diverse ABA receptors (PYL1, PYL2, PYL4, PYL8, and maize receptor ZmPYLe), pooled them, and assayed receptor/ligand-mediated inhibition of the PP2C HAB1. The Arabidopsis receptors and PP2C ΔN-HAB1 used were expressed and purified using previously described expression clones and methods (Okamoto et al.) PYL1, PYL2, PYL4, and PYL8 were expressed as 6×-His tags in pET28; ΔN-HAB1 was expressed as 6×-His tag as a truncated form lacking residues 1-179 in pETM-11. ZmPylE (GRMZM2G165567; ZmPYL8 in (He et al.)) was expressed as an MBP fusion protein in pMal-c and expressed and purified as described previously for PYL9 and PYL1 in reference (Okamoto et al.). Assays were conducted in a buffer containing 100 mM Tris-HCl-pH7.9, 100 mM NaCl, 30 μg/ml BSA, 0.1% 2-mercaptoethanol, 100 nM PYL1 and PYL2, 900 nM PYL4 and PYL8, 200 nM ZmPylE, 1 mM 4-methylumbelliferyl phosphate, and 20 μM test compound. The substrate was added ˜20 minutes after the other components had been mixed and fluorescence data collected after substrate addition using a Tecan Infinite F200 Pro fluorimeter. Control carrier solvent-only wells were included as a reference and %-PP2C activity calculated relative to this control. To validate this assay we tested multiple selective and pan-agonists to ensure that their activity could reliably be detected. […]

On to `N#Cc1ccc(CC(=O)NC2(C(=O)O)CCCCC2)cc1` [2b, 1-[2-(4-cyanophenyl)acetamido]cyclohexane-1-carboxylic acid], for which the “potency in receptor-mediated PP2C inhibition (in words)” value in assay [1] is reported as “dramatically improves activity across all receptors tested”.
For `N#Cc1ccc(CC(=O)NC2(C(=O)O)CCCCC2)cc1C1CC1` [2e, 1-[2-(4-cyano-3-cyclopropylphenyl)acetamido]cyclohexane-1-carboxylic acid], the “effect on germination in receptor mutant backgrounds” value (“effect on germination” below) in assay [2] was “clearly reduced in the pyr1/pyl1 and pyl8/pyl9 mutant backgrounds”. Moreover, the test concentration (twice the EC50 for germination inhibition) in assay [3] (printed value is twice the EC50, used as test concentration on mutants, read-out: twice the concentrations determined as its EC50 (inhibition of germination) (converted)) is 220 nM. Moreover, the “potency in receptor-mediated PP2C inhibition (in words)” value in assay [1] was “high potency across all receptors tested”.
As for `CS(=O)(=O)NC(=O)C1(NC(=O)Cc2ccc(C#N)c(C3CC3)c2)CCCCC1` [2r], the “activity on PYL2 (in words)” value on PYL2 was “modestly activity on PYL2”.
As to `CC1=CC(=O)CC(C)(C)[C@@]1(O)/C=C/C(C)=C\C(=O)O` [ABA, Abscisic acid], in assay [2], the “effect on germination” value was “clearly reduced in the pyr1/pyl1 and pyl8/pyl9 mutant backgrounds”. Besides, in assay [4], the “activity in the pooled receptor assay” value was “active”. For the same molecule, in assay [3] (read-out: twice the concentrations determined as its EC50 (inhibition of germination)), the EC50 was 600 nM.
Regarding `CCCN1C(=O)CCc2cc(NS(=O)(=O)Cc3c(F)c(F)c(C)c(F)c3F)ccc21` [AMF4], in assay [2], the “effect on germination” value is “only show diminished activity in the pyr1/pyl1 mutant”.
Regarding `O=S(=O)(NCc1ccccn1)c1ccc(Br)c2ccccc12` [pyrabactin], the “activity in the pooled receptor assay” value in assay [4] is recorded as “active”.
With `CCCN1C(=O)CCc2cc(NS(=O)(=O)Cc3ccc(C)cc3)ccc21` [quinabactin], the “effect on germination” value in assay [2] is “only show diminished activity in the pyr1/pyl1 mutant”. Moreover, the “activity in the pooled receptor assay” value in assay [4] is “active”.
